Reference: patent publication US11760761B2, “Methods and compositions for targeting PD-L1” (Aligos Therapeutics, Inc., priority 2020, dated 2023)
pEC50, pIC50: −log10 of the molar value.

Experiments:
PDL1/PD1 = PDL1/PD1 (Homo sapiens (Human), UniProt Q9NZQ7); experiment: PDL1/PD1 Binding Assay; settings: PDL1-6xHis 0.3 nM, PD1-Fc-Avi-Biotin 2.5 nM, Acceptor/Donor beads; read-out: PD-1/PD-L1 PPI IC50
Procedure: Compounds to be tested were serially diluted in DMSO, and further diluted in assay buffer (25 mM Hepes pH 7.4, 150 mM NaCl, 0.005% Tween 20, BSA 0.01%). Diluted compounds were added to the wells with final concentration of DMSO at 1%. PDL1-6×His protein was added to the wells, mixed well with compound. The plates were incubated for 30 min at room temperature. PD1-Fc-Avi-Biotin protein was added to the wells. Final concentration of PDL1 and PD1 protein is 0.3 nM and 2.5 nM, respectively. After a binding time of 30 min at room temperature, Anti-6×His Acceptor beads (final concentration 20 ug/ml) were added to the wells, and the incubation continued for 1 h. Streptavidin Donor beads (final concentration 20 ug/mL) were added at reduced light. The plates were sealed with foil and incubated in the dark for additional 1 h or overnight before reading on an Envision reader. The IC50 values were determined by fitting the curves using a four-parameter equation in Graphpad Prism 8.

PD-1/PD-L1 interaction = PD-1/PD-L1 interaction (Homo sapiens (Human), UniProt Q9NZQ7); experiment: PD-1/PD-L1 NFAT Reporter Assay (Jurkat T cells / PD-L1 expressing CHO cells co-culture); format: cell-based; settings: for pEC50: co-culture 6 hrs at 37° C., luciferase
Procedure: Blocking the PD-1/PD-L1 interaction will release the inhibitory signal and results in TCR signaling and NFAT-mediated luciferase activity.
CHO cells expressing surface-bound anti-CD3 antibodies and PD-L1 were first seeded overnight and treated with the compounds. Jurkat cells overexpressing PD-1 and a luciferase construct under NF-AT promoter were then immediately seeded on the monolayer of CHO cells. The co-culture was then incubated for 6 hrs at 37° C. Luciferase activity was assessed by adding the ONE-Glo reagent and measuring luminescence with a plate reader. EC50s values were determined from the fit of the dose-response curves Emax (%) corresponds to the maximum NFAT-activation level reached by a given compound relative to the positive control (10 nM Atezolizumab).

PD-1/PD-L1 interaction, sequence (Q9NZQ7 19-290): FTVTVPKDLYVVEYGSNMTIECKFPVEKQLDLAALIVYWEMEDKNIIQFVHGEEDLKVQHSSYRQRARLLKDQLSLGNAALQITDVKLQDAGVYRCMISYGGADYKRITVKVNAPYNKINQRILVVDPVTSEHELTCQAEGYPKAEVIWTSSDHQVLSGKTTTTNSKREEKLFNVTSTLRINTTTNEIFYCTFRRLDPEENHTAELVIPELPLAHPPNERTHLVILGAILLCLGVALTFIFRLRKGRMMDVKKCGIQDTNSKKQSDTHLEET
PDL1/PD1, sequence (Q9NZQ7 19-238): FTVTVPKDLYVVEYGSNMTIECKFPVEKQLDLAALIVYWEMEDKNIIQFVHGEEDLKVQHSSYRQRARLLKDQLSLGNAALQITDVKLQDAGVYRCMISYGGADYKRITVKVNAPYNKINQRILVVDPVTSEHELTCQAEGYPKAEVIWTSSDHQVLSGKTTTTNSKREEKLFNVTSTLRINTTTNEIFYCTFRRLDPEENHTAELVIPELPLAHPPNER

Row | pIC50 (PDL1/PD1) | pEC50 (PD-1/PD-L1 interaction) | Emax (PD-1/PD-L1 interaction; Jurkat, maximum NFAT-activation level relative to the positive control (10 nM Atezolizumab)) [%] | SMILES
1 | ≥ 8.00 | 7.00 to 8.00 |  | COc1nc(-c2cccc(-c3cccc(-c4cc5c(c(OC)n4)[C@H](N4CC6(CN(C(C)=O)C6)C4)CC5)c3Cl)c2Cl)cnc1CNC[C@@H]1CCC(=O)N1 (single isomer, unassigned) [Compound D-17]
2 | ≥ 8.00 | < 5.00 |  | COc1nc(-c2cccc(-c3cccc(-c4cc5c(c(OC)n4)[C@@H](N4CC6(CN(C(C)=O)C6)C4)CC5)c3Cl)c2Cl)cnc1CN1CC2(C1)CN(C(C)=O)C2 (single isomer, unassigned) [Compound D-18]
3 | ≥ 8.00 | ≥ 8.00 |  | COc1nc(-c2cccc(-c3cccc(-c4cc5c(c(OC)n4)[C@H](N4CC6(CN(C(C)=O)C6)C4)CC5)c3Cl)c2Cl)cnc1CN1CC2(C1)CN(C(C)=O)C2 (single isomer, unassigned) [Compound D-19]
4 | ≥ 8.00 | ≥ 8.00 |  | COc1nc(-c2cccc(-c3cccc(-c4cc5c(c(OC)n4)[C@@H](NC[C@@H]4CCC(=O)N4)CO5)c3Cl)c2Cl)cc(C)c1CN1CC2(C1)CN(C(C)=O)C2 (single isomer, unassigned) [Compound E-4]
5 | ≥ 8.00 | 7.00 to 8.00 |  | CCOC(=O)C1CN([C@H]2CCc3cc(-c4cccc(-c5cccc(-c6cnc(CN7CC(OC)C7)c(OC)n6)c5Cl)c4Cl)nc(OC)c32)C1 (single isomer, unassigned) [Compound G-5]
6 | ≥ 8.00 | 5.00 to 6.00 |  | CCOC(=O)C1CN([C@@H]2CCc3cc(-c4cccc(-c5cccc(-c6cnc(CN7CC(OC)C7)c(OC)n6)c5Cl)c4Cl)nc(OC)c32)C1 (single isomer, unassigned) [Compound G-6]
7 | ≥ 8.00 | 7.00 to 8.00 |  | COc1nc(-c2cccc(-c3cccc(-c4cc5c(c(OC)n4)[C@@H](N4CC(C(=O)O)C4)CC5)c3Cl)c2Cl)cnc1CN1CC(OC)C1 (single isomer, unassigned) [Compound H-3]
8 | ≥ 8.00 | 6.00 to 7.00 |  | COc1nc(-c2cccc(-c3cccc(-c4cc5c(c(OC)n4)[C@H](N4CC(C(=O)O)C4)CC5)c3Cl)c2Cl)cnc1CN1CC(OC)C1 (single isomer, unassigned) [Compound H-4]
9 | ≥ 8.00 | 7.00 to 8.00 |  | COc1nc(-c2cccc(-c3cccc(-c4cc5c(c(OC)n4)[C@@H](N4CC(C(=O)O)C4)CC5)c3Cl)c2Cl)cnc1CN1C[C@@H](O)[C@@H]1C (single isomer, unassigned) [Compound H-5]
10 | ≥ 8.00 | 6.00 to 7.00 |  | COc1nc(-c2cccc(-c3cccc(-c4cc5c(c(OC)n4)[C@H](N4CC(C(=O)O)C4)CC5)c3Cl)c2Cl)cnc1CN1C[C@@H](O)[C@@H]1C (single isomer, unassigned) [Compound H-6]
11 | ≥ 8.00 |  | 33 | CCOC(=O)CN[C@H]1CCc2cc(-c3cccc(-c4cccc(-c5cnc(CN6CC7(CCC(=O)N7)C6)c(OC)n5)c4Cl)c3Cl)cc(OC)c21 [Compound A-1]
12 | ≥ 8.00 | 6.00 to 7.00 |  | COc1nc(-c2cccc(-c3cccc(-c4cc5c(c(OC)n4)[C@H](NC[C@@H]4CCC(=O)N4)CC5)c3Cl)c2Cl)cnc1CN1CC2(CCC(=O)N2)C1 [Compound C-2]
13 | ≥ 8.00 | 7.00 to 8.00 |  | COc1nc(-c2cccc(-c3cccc(-c4cc5c(c(OC)n4)C(NC[C@H]4CCC(=O)N4)CC5)c3Cl)c2Cl)cnc1CN1CC2(CCC(=O)N2)C1 (stereo partly drawn) [Compound C-7]
14 | ≥ 8.00 | 7.00 to 8.00 |  | COc1nc(-c2cccc(-c3cccc(-c4cc5c(c(OC)n4)C(NC4CN(C(C)=O)C4)CC5)c3Cl)c2Cl)cnc1CN1CC2(CCC(=O)N2)C1 (stereo not drawn) [Compound C-8]
15 | ≥ 8.00 | 6.00 to 7.00 |  | COc1nc(-c2cccc(-c3cccc(-c4cc5c(c(OC)n4)C(N4CCC(F)(F)C4)CC5)c3Cl)c2Cl)cnc1CN1CC2(CCC(=O)N2)C1 (stereo not drawn) [Compound C-9]
16 | ≥ 8.00 | 7.00 to 8.00 |  | COc1nc(-c2cccc(-c3cccc(-c4cc5c(c(OC)n4)C(N4CCN(C(C)=O)CC4)CC5)c3Cl)c2Cl)cnc1CN1CC2(CCC(=O)N2)C1 (stereo not drawn) [Compound C-10]
17 | ≥ 8.00 | 7.00 to 8.00 |  | COc1nc(-c2cccc(-c3cccc(-c4cc5c(c(OC)n4)C(N4CC6(CN(C(C)=O)C6)C4)CC5)c3Cl)c2Cl)cnc1CN1CC2(CCC(=O)N2)C1 (stereo not drawn) [Compound C-11]
18 | ≥ 8.00 | 7.00 to 8.00 |  | CCOc1nc(-c2cccc(-c3cccc(-c4cnc(CN5CC6(CCC(=O)N6)C5)c(OC)n4)c3Cl)c2Cl)cc2c1C(NC[C@@H]1CCC(=O)N1)CC2 (stereo partly drawn) [Compound C-12]

Row | pIC50 (PDL1/PD1) | pEC50 (PD-1/PD-L1 interaction) | Emax (PD-1/PD-L1 interaction; Jurkat, maximum NFAT-activation level relative to the positive control (10 nM Atezolizumab)) [%] | SMILES
19 | ≥ 8.00 | 7.00 to 8.00 |  | COc1nc(-c2cccc(-c3cccc(-c4cc5c(c(OCC6CC6)n4)C(NC[C@@H]4CCC(=O)N4)CC5)c3Cl)c2Cl)cnc1CN1CC2(CCC(=O)N2)C1 (stereo partly drawn) [Compound C-14]
20 | ≥ 8.00 | 7.00 to 8.00 |  | COc1nc(-c2cccc(-c3cccc(-c4cc5c(c(OCc6ccccn6)n4)C(NC[C@@H]4CCC(=O)N4)CC5)c3Cl)c2Cl)cnc1CN1CC2(CCC(=O)N2)C1 (stereo partly drawn) [Compound C-15]
21 | ≥ 8.00 | ≥ 8.00 |  | COc1nc(-c2cccc(-c3cccc(-c4cc5c(c(OC)n4)[C@@H](NC[C@@H]4CCC(=O)N4)CC5)c3Cl)c2Cl)cnc1CNC[C@@H]1CCC(=O)N1 [Compound D-2]
22 | ≥ 8.00 | ≥ 8.00 |  | COc1nc(-c2cccc(-c3cccc(-c4cc5c(c(OC)n4)[C@@H](NC[C@@H]4CCC(=O)N4)CC5)c3Cl)c2Cl)cnc1CN1CC2(CCCO2)C1 [Compound D-3]
23 | ≥ 8.00 | 7.00 to 8.00 |  | COc1nc(-c2cccc(-c3cccc(-c4cc5c(c(OC)n4)[C@@H](NC[C@@H]4CCC(=O)N4)CC5)c3Cl)c2Cl)cnc1CN1CC(F)C1 [Compound D-4]
24 | ≥ 8.00 | 7.00 to 8.00 |  | COc1nc(-c2cccc(-c3cccc(-c4cc5c(c(OC)n4)[C@@H](NC[C@@H]4CCC(=O)N4)CC5)c3Cl)c2Cl)cnc1CN1CC(F)(F)C1 [Compound D-5]
25 | ≥ 8.00 | ≥ 8.00 |  | COc1nc(-c2cccc(-c3cccc(-c4cc5c(c(OC)n4)[C@@H](NC[C@@H]4CCC(=O)N4)CC5)c3Cl)c2Cl)cnc1CN1CCN(C(C)=O)CC1 [Compound D-6]
26 | ≥ 8.00 | 6.00 to 7.00 |  | COc1nc(-c2cccc(-c3cccc(-c4cc5c(c(OC)n4)[C@H](NC[C@@H]4CCC(=O)N4)CC5)c3Cl)c2Cl)cnc1CN1CC(O)C1 [Compound D-7]
27 | ≥ 8.00 | ≥ 8.00 |  | COc1nc(-c2cccc(-c3cccc(-c4cc5c(c(OC)n4)[C@@H](NC[C@@H]4CCC(=O)N4)CC5)c3Cl)c2Cl)cnc1CN1CC(O)C1 [Compound D-8]
28 | ≥ 8.00 | ≥ 8.00 |  | COc1nc(-c2cccc(-c3cccc(-c4cc5c(c(OC)n4)[C@@H](NC[C@@H]4CCC(=O)N4)CC5)c3Cl)c2Cl)cnc1CN1CC(OC)C1 [Compound D-9]
29 | ≥ 8.00 | 5.00 to 6.00 |  | COc1nc(-c2cccc(-c3cccc(-c4cc5c(c(OC)n4)[C@H](NC[C@@H]4CCC(=O)N4)CC5)c3Cl)c2Cl)cnc1CN1CC(OC)C1 [Compound D-10]
30 | ≥ 8.00 | ≥ 8.00 |  | COc1nc(-c2cccc(-c3cccc(-c4cc5c(c(OC)n4)[C@@H](NC[C@@H]4CCC(=O)N4)CC5)c3Cl)c2Cl)cnc1CN1CCCC1 [Compound D-11]
31 | ≥ 8.00 | ≥ 8.00 |  | COc1nc(-c2cccc(-c3cccc(-c4cc5c(c(OC)n4)[C@@H](NC[C@@H]4CCC(=O)N4)CC5)c3Cl)c2Cl)cnc1CN1C[C@@H](O)[C@@H]1C [Compound D-13]
32 | ≥ 8.00 | ≥ 8.00 |  | COc1nc(-c2cccc(-c3cccc(-c4cc5c(c(OC)n4)[C@@H](NC[C@@H]4CCC(=O)N4)CC5)c3Cl)c2Cl)ccc1CN1CC2(CCC(=O)N2)C1 [Compound E-3]
33 | ≥ 8.00 | 7.00 to 8.00 |  | COc1nc(-c2cccc(-c3cccc(-c4cc5c(c(OC)n4)C(N4CCC[C@H](C(=O)O)C4)CC5)c3Cl)c2Cl)cnc1CN1CC(O)C1 (stereo partly drawn) [Compound F-2]
34 | ≥ 8.00 | 7.00 to 8.00 |  | COc1nc(-c2cccc(-c3cccc(-c4cc5c(c(OC)n4)C(N4CCC(C(=O)O)CC4)CC5)c3Cl)c2Cl)cnc1CN1CC(O)C1 (stereo not drawn) [Compound F-3]
35 | ≥ 8.00 | 7.00 to 8.00 |  | COc1nc(-c2cccc(-c3cccc(-c4cc5c(c(OC)n4)CCN(CC(=O)O)C5)c3Cl)c2Cl)cnc1CN1CC(C)(O)C1 [Compound J-2]
36 | ≥ 8.00 | 5.00 to 6.00 |  | COc1nc(-c2cccc(-c3cccc(-c4cc5c(c(OC)n4)CCN(CC(=O)O)C5)c3Cl)c2Cl)cnc1CN1CC(O)(C(F)(F)F)C1 [Compound J-3]
